Laboratory results taken from US9403756B2, “N-phenyl anthranilic acid derivatives and uses thereof” (Ramot at Tel-Aviv University Ltd., priority 2007, dated 2016).
“Also recorded” adds a separate entry of the source.

Legend:
TRPV6 channel = molecular target: T1, TRPV6 channel (Homo sapiens, UniProt Q9H1D0); test: TRPV6 currents in transfected CHO cells; assay type: cell-based; settings: 25 μM NH29; −80 mV to 100 mV
T1 construct: expressed in transfected cells; host or cells: CHO cells
Protocol: FIGS. 15A-C present the lack of effect of NH29, an exemplary compound according to some embodiments of the present invention, on TRPV6 channel. FIG. 15A presents superimposed representative traces recorded from a CHO cell transfected with TRPV6 before (marked control) during (marked 165s) and after (marked wash) external application of 25 μM NH29, and wherein the membrane potential was stepped from −80 mV to 100 mV for 40 seconds pulse duration (protocol shown in upper panel). The current amplitude was measured at peak current points (marked a 1 at −80 mV and a2 at +100 mV) and plotted as a function of recording time (FIGS. 15B and 15C respectively).
Chinese hamster ovary (CHO) cells were grown in Dulbecco's modified Eagle's medium (DMEM) supplemented with 2 mM glutamine, 10% fetal calf serum and antibiotics. Briefly, 40,000 cells seeded on poly-D-lysine-coated glass coverslips (13 mm diameter) in a 24-multiwell plate were transfected with pIRES-CD8 (0.5 μg) as a marker for transfection, and with Kv7.2 (0.5 μg) and Kv7.3 (0.5 μg) or TRPV1 […] or TRPV6 […].
For electrophysiology, transfected cells were visualized approximately 40 hours following transfection, using anti-CD8 antibody-coated beads. Transfection was performed using Fugene 6 (Roche, Indianapolis Ind., USA) according to the manufacturer's protocol. […]

KCNQ2 mutant R207W = molecular target: T2, KCNQ2 mutant R207W (Homo sapiens, UniProt O43526, R207W); assay type: cell-based
T2 construct: expressed in transfected cells; host or cells: CHO cells
Source text: FIGS. 10A-D present the potentiating effect of NH29, an exemplary channel opener compound according to embodiments of the present invention, on wild type KCNQ2 (FIGS. 10A and 10B) and R207W mutant (FIGS. 10C and 10D) channels, as expressed in activation curve measurements, showing that NH29 left-shifts the activation curve (ΔV50) by −15.5 mV and −5.5 mV in the case of the wild-type and the mutant, respectively, and showing that NH29 enhances the current of wild-type and the mutant by about 3.4-fold (at −40 mV) and 1.5-fold (at −20 mV), respectively.
FIGS. 11A-F present the potentiating effect of NH29, an exemplary channel opener compound according to embodiments of the present invention, and Retigabine, on KCNQ2 mutants R207W and W236L mutant. Shown are representative traces recorded from CHO cell transfected with the KCNQ2 mutant R207W 0, 1 and 4-4.5 minutes after external application of 25 μM of NH29 and wherein the membrane potential was stepped from −90 mV holding potential to −20 mV for 1.5 seconds pulse duration (FIG. 11A), or 0, 1 and 4 minutes after external application of 25 μM of Retigabine wherein the membrane potential was stepped from −90 mV holding potential to −40 mV for 1.5 seconds pulse duration (FIG. 11B). FIGS. 11C and 11D show representative traces recorded from CHO cells transfected with the KCNQ2 mutant W236L 0, 1 and 6 minutes after external application of 25 μM of NH29 (FIG. 11C) or 0 and 5 minutes after external application of 10 μM of Retigabine (FIG. 11D) and wherein the membrane potential was stepped from −90 mV holding potential to −40 mV for 1.5 seconds pulse duration. FIG. 11E presents superimposed traces, showing the effects of Retigabine (RTG) and NH29 on the channel activity of KCNQ2 mutant W236L as measured at −40 mV; and FIG. 11F presents a bar diagram comparing the potentiating effect of NH29 and Retigabine on native KCNQ2 and KCNQ2 mutants, wherein the opener effect is expressed as percent of the control current in the absence of the opener.
Voltage-clamp recordings in CHO cells were performed, using the whole-cell configuration of the patch-clamp technique. Signals were amplified using an Axopatch 200B patch-clamp amplifier (Molecular Devices, Sunnyvale, Calif.), sampled at 2 kHz and filtered at 800 Hz via a 4-pole Bessel low pass filter. Data were acquired using pClamp 9.2 software (Molecular Devices) and an IBM compatible Pentium IV computer in conjunction with a DigiData 1322A interface (Molecular Devices). The patch pipettes were pulled from borosilicate glass (Warner Instrument Corp, USA) with a resistance of 2-5 MΩ. For K^+ current recordings in CHO cells, the intracellular pipette solution contained (in mM): 130 KCl, 1 MgCl2, 5 K2ATP, 5 EGTA, 10 HEPES, adjusted with KOH to pH 7.4 (290 mOsm). The extracellular solution contained (in mM): 140 NaCl, 4 KCl, 1.8 CaCl2, 1.2 MgCl2, 11 glucose, 5.5 HEPES, adjusted with NaOH to pH 7.4 (310 mOsm). Series resistances (3-13 MΩ) were compensated (75-90%) and periodically monitored.

[1] = test system: maximal electroshock seizure model (MES) in ICR mice; test: Maximal electroshock seizure test (MES); assay type: in vivo; settings: Mus musculus, ip; mice; intraperitoneal, 30 minutes before electroshock; 50 mA, 0.2 sec; read-out: ED50, protection against tonic extension caused by MES
Protocol: The anti-convulsant effect was measured by the maximal electroshock seizure model (MES) in ICR mice as previously described. The procedures followed for experimentation and maintenance of the animals were approved by the animal research ethics committee of Tel Aviv University and in accordance with the Guide for the Care and Use of Laboratory Animals (1996, National Academy of Sciences, Washington D.C.). Briefly, maximal electroshock was induced in adult mice by means of two transcorneal electrodes delivering an alternative current of 50 mA at 60 Hz for 0.2 sec using rodent shocker (Hugo Sachs Electronik, type 221). […] The compounds, dissolved in 0.9% saline, were administered intraperitoneally 30 minutes before the electroshock was performed. Animals failing to show tonic hind limb extension were scored as protected and were expressed in percentage.

T2 sequence (O43526 whole entry R207W): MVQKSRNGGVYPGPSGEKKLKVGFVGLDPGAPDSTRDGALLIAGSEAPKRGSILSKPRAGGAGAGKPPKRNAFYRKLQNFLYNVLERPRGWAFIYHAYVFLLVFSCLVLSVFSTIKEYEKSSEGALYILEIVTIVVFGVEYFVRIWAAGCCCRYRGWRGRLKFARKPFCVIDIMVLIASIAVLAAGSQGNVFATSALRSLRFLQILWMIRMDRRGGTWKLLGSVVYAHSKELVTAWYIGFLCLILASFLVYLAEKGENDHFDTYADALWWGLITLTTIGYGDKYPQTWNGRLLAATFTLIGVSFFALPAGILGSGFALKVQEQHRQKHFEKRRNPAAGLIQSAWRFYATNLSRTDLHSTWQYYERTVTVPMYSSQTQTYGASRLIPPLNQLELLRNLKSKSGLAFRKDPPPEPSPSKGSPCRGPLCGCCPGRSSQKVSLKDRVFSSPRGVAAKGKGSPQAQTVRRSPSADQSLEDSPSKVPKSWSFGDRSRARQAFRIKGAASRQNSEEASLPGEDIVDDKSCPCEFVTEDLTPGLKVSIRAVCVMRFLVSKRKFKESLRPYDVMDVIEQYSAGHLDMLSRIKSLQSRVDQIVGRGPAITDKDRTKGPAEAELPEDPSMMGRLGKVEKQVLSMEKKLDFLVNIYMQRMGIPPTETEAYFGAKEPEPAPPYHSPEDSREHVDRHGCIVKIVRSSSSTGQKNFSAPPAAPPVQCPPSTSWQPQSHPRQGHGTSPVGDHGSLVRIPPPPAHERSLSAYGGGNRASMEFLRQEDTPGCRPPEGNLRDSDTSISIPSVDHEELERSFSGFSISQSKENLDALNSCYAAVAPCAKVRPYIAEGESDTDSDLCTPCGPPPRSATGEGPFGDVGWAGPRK
T1 sequence (Q9H1D0 whole entry): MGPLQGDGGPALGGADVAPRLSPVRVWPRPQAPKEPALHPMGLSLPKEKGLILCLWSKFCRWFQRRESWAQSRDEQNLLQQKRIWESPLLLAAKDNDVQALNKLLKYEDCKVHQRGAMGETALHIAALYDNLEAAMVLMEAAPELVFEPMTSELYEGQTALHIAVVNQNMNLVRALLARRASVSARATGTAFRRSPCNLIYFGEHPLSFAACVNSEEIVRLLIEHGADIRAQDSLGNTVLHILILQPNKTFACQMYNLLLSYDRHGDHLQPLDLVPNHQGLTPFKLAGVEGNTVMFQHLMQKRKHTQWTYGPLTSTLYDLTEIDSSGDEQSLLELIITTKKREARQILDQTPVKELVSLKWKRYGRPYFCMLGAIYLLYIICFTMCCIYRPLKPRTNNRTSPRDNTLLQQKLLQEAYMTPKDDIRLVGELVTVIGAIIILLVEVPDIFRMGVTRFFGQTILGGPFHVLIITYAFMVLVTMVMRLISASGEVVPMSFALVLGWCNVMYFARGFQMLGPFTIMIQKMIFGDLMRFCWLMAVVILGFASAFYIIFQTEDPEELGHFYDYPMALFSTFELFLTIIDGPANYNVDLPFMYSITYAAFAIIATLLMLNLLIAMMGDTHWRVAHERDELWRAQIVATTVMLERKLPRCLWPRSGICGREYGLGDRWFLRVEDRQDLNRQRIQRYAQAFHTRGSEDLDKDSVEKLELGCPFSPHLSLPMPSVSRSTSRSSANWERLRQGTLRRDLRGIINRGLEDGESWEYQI

SMILES | modulation of TRPV6 current (TRPV6 channel) | effect of point mutation R207W on the opener effect (KCNQ2 mutant R207W; 25 μM) | fold enhancement of current (KCNQ2 mutant R207W; 25 μM NH29, at −20 mV) | left-shift of the activation curve (ΔV50) (KCNQ2 mutant R207W; NH29) | ED50 [1]
O=C(Cc1cc([N+](=O)[O-])cc([N+](=O)[O-])c1Nc1c(Cl)cc([N+](=O)[O-])cc1Cl)NCCO [NH29] | lack of modulation; also recorded: no similar inhibition of TRPV6 was observed | completely abolished the opener effect | ~1.5 fold | −5.5 mV | 
O=C(Cc1cc([N+](=O)[O-])ccc1Nc1c(Cl)cccc1Cl)OCCO [NH25] |  |  |  |  | 12 mg/kg
